Data set [1] has as its system L-1210 leukemia. Particulars: days 1,4,7 iv; dose of preceding T/C line.
Data set [2] has as its system L-1210 leukemia. The experiment in a line: Intravenously implanted L-1210 leukemia, iv treatment. Particulars: days 1,4,7 iv.
The subject of a further data set is B16 melanoma. As to conditions: qd 1-9 ip; dose of preceding T/C line.

The values that follow come from patent US4708872A, “Antitumor antibiotic complex” (Bristol-Meyers Company, priority 1985, dated 1987).

Values joined by “and” are separate entries in the source; they are usually repeats but may differ in a detail not shown here. Equal values may be shown once. Read-outs that look alike come from different tables or passages of the source.

Method for B16 melanoma: (§1) Lymphocytic leukemia P-388, lymphoid leukemia L-1210, melanotic melanoma B16 and Lewis lung carcinoma were implanted intraperitoneally into male BDF1 mice at an inoculum size of 10^6, 10^5, 5×10^5 and 10^6 cells per mouse, respectively. Graded doses of test compounds were administered to the mice intraperitoneally 24 hours after the tumor inoculation.
(§2) Death or survival of the treated and non-treated mice was recorded daily, and the median survival time (MST) was calculated for each of the test (T) and control (C) groups. […] Second experiments were carried out by intravenous administration of BBM-1675 components against P-388 and L-1210 leukemias, which were inoculated intravenously at 5×10^5 and 10^4 cells per mouse, respectively.
Method for Lewis lung carcinoma: as §1, §2

Regarding `COc1cccc2c1C(=O)c1c(O)c3c(c(O)c1C2=O)C[C@@](O)(C(=O)CO)C[C@@H]3O[C@H]1C[C@H](N)[C@H](O)[C@H](C)O1` [Adriamycin, adriamycin], the MST in the data set with L-1210 leukemia [1] is 9.0 days; with L-1210 leukemia [2] (16 mg/kg/day) it was “tox”; in the data set with L-1210 leukemia [2] (dose of preceding T/C line), 12.0 days and 8.0 days. Moreover, the “Survivors on day 5” value in the data set on L-1210 leukemia [2] (16 mg/kg/day) is on record as 2/6; in the data set with L-1210 leukemia [2] (dose of preceding T/C line), 6/6. For the same molecule, the “Survivors on day 45” value in the data set with L-1210 leukemia [2] (16 mg/kg/day) is reported as 0/6.

As for `CO[C@@H]1[C@H](O)C[C@@H](O[C@@H]2C[C@H](Oc3cc4cc5c(c(O)c4c(O)c3C)C(=O)[C@@H](O[C@H]3C[C@@H](O[C@H]4C[C@@H](O[C@H]6C[C@](C)(O)[C@@H](OC(C)=O)[C@H](C)O6)[C@H](O)[C@@H](C)O4)[C@H](O)[C@@H](C)O3)[C@H]([C@H](OC)C(=O)[C@@H](O)[C@@H](C)O)C5)O[C@H](C)[C@@H]2OC(C)=O)O[C@@H]1C` [Chromomycin A3, chromomycin A3], the “Survivors on day 5” value in the data set on Lewis lung carcinoma (mouse, in vivo, ip) was 5/5; in the data set with Lewis lung carcinoma (qd 1-11 ip, dose of preceding T/C line), 6/6; in the data set on B16 melanoma, 6/6.
